Results from publication PMC9782500 (International Journal of Molecular Sciences, 2022).

Each compound was assayed against T1, RXRα (Homo sapiens, UniProt P19793) (assay: RXRα activation EC50 (Luc and GFP UAS/Gal4 assays)).
T1 sequence (P19793 227-458 limits assumed): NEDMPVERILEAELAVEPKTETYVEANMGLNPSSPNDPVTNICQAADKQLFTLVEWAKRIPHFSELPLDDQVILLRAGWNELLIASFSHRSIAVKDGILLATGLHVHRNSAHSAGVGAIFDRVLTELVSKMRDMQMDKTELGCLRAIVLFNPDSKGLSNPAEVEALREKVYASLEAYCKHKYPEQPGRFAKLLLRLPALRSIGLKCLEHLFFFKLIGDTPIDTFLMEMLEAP
Description: UAS/Gal4 assay. Bone marrow cells from UAS-GFP mice [79] were transduced with retroviruses MSCV-Gal4 (DNA binding domain, DBD)—RXRα (ligand binding domain, LBD)—IRES—mCherry. […] Cells were treated, and after 48 h, GFP was measured by flow cytometry.
Luciferase detection. HEK293T cells were transfected using Lipofectamine 2000 (Invitrogen) [80]. Six hours after transfection, the cells were collected and plated into a 48-well plate in 1% BSA media in biological triplicates and treated with compounds. After 40 h incubation, the cells were harvested and assayed for luciferase (Luc Assay System with Reporter Lysis Buffer, Promega) in a Beckman Coulter LD400 plate reader.

Row | EC50 | Compound
1 | 5.3 nM | C=CCN(c1ncc(C(=O)O)cn1)c1cc2c(cc1C)C(C)(C)CCC2(C)C [Compound 33]
2 | 3.9 nM | Cc1cc2c(cc1-c1cc(/C=C/C(=O)O)ccc1O)C(C)(C)COC2(C)C [Compound 29]
3 | 87.7 nM | Cc1cc2c(cc1N(C)c1ccc(C(=O)O)cc1)C(C)(C)COC2(C)C [Compound 42]
4 | 1.8 nM | C=CCN(c1ccc(C(=O)O)cn1)c1cc2c(cc1C)C(C)(C)CCC2(C)C [Compound 32]
5 | 23.7 nM | CCN(c1ccc(C(=O)O)cn1)c1cc2c(cc1C)C(C)(C)OCC2(C)C [Compound 38]
6 | 11.5 nM | C=CCN(c1ccc(C(=O)O)cc1)c1cc2c(cc1C)C(C)(C)CCC2(C)C [Compound 34]
7 | 405 nM | Cc1cc2c(cc1N(C)c1ncc(C(=O)O)cn1)C(C)(C)COC2(C)C [Compound 37]
8 | 23.1 nM | CCN(c1ccc(C(=O)O)cc1)c1cc2c(cc1C)C(C)(C)OCC2(C)C [Compound 43]
9 | 143 nM | C=CCN(c1ncc(C(=O)O)cn1)c1cc2c(cc1C)C(C)(C)OCC2(C)C [Compound 41]
10 | 5.4 nM | Cc1cc2c(cc1N(C)c1ccc(C(=O)O)cn1)C(C)(C)CCC2(C)C [Compound 31]
11 | 8.6 nM | Cc1cc2c(cc1N(C)c1ccc(C(=O)O)cc1)C(C)(C)CCC2(C)C [Compound 23, reference compound]
12 | 152 nM | CCN(c1ncc(C(=O)O)cn1)c1cc2c(cc1C)C(C)(C)OCC2(C)C [Compound 39]
13 | 51 nM | C=C(c1ccc(C(=O)O)cc1)c1cc2c(cc1C)C(C)(C)OCC2(C)C [Compound 26]
14 | 65.3 nM | Cc1ccc(/C=C/C(=O)O)cc1-c1cc2c(cc1C)C(C)(C)OCC2(C)C [Compound 27]
15 | 6.2 nM | Cc1cc2c(cc1N(C)c1ncc(C(=O)O)cn1)C(C)(C)CCC2(C)C [Compound 24, reference compound]
16 | > 1000 nM | Cc1cc2c(cc1-c1coc3cc(C(=O)O)ccc13)C(C)(C)COC2(C)C [Compound 30]
17 | 0.54 nM | C=CCN(c1ccc2c(c1)C(C)(C)CCC2(C)C)c1ncc(C(=O)O)cn1 [Compound 35]
18 | 17.8 nM | CN(c1ccc2c(c1)C(C)(C)CCC2(C)C)c1ncc(C(=O)O)cn1 [Compound 25, reference compound]
19 | 116 nM | C=CCN(c1ccc(C(=O)O)cc1)c1cc2c(cc1C)C(C)(C)OCC2(C)C [Compound 44]
20 | 10.7 nM | C=CCN(c1ccc(C(=O)O)cn1)c1cc2c(cc1C)C(C)(C)OCC2(C)C [Compound 40]
21 | 59.2 nM | Cc1cc2c(cc1-c1cc(/C=C/C(=O)O)ccc1C(F)(F)F)C(C)(C)COC2(C)C [Compound 28]
22 | 75 nM | Cc1cc2c(cc1N(C)c1ccc(C(=O)O)cn1)C(C)(C)COC2(C)C [Compound 36]
